Results on 16 molecules are retold here after PubChem BioAssay AID248 (DTP/NCI, 2004).

Inconclusive results and toxic doses are left out.

The experiment relates to L1210 leukemia ip in BDF1 mice, survival T/C. The experiment in a line: NCI In Vivo Anticancer Drug Screen. Data for tumor model L1210 Leukemia (intraperitoneal) in B6D2F1 (BDF1) mice. The note with it: endpoint: mean survival time, higher = longer survival. Put shortly: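 Tumor cells were implanted, animals were treated, and survival was followed. The result divides the treated measurement by the vehicle-control measurement.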

The mark [1] stands for this setting: dose: 100.0 mg/kg/injection, schedule: Q04DX003 (ip), vehicle: saline.
The mark [2] stands for this setting: dose: 200.0 mg/kg/injection, schedule: Q04DX003 (ip), vehicle: saline.
[3] abbreviates: dose: 400.0 mg/kg/injection, schedule: Q04DX003 (ip), vehicle: saline.
[4] abbreviates: dose: 12.5 mg/kg/injection, schedule: Q01DX009 (ip), vehicle: saline with Tween-80.
Where [5] appears, read: dose: 25.0 mg/kg/injection, schedule: Q01DX009 (ip), vehicle: saline with Tween-80.
Setting [6] is: dose: 25.0 mg/kg/injection, schedule: Q04DX003 (ip), vehicle: Klucel (hydroxypropylcellulose) (HPC).
Setting [7] is: dose: 50.0 mg/kg/injection, schedule: Q04DX003 (ip), vehicle: Klucel (hydroxypropylcellulose) (HPC).
The mark [8] stands for this setting: dose: 100.0 mg/kg/injection, schedule: Q01DX009 (ip), vehicle: Klucel (hydroxypropylcellulose) (HPC).
[9] abbreviates: dose: 200.0 mg/kg/injection, schedule: Q01DX009 (ip), vehicle: Klucel (hydroxypropylcellulose) (HPC).
[10] abbreviates: dose: 400.0 mg/kg/injection, schedule: Q01DX009 (ip), vehicle: Klucel (hydroxypropylcellulose) (HPC).
Where [11] appears, read: dose: 100.0 mg/kg/injection, schedule: Q04DX002 (ip), vehicle: saline with Tween-80.
Setting [12] is: dose: 200.0 mg/kg/injection, schedule: Q04DX002 (ip), vehicle: saline with Tween-80.
Where [13] appears, read: dose: 100.0 mg/kg/injection, schedule: Q04DX002 (ip), vehicle: saline.
Where [14] appears, read: dose: 200.0 mg/kg/injection, schedule: Q04DX002 (ip), vehicle: saline.
Where [15] appears, read: dose: 400.0 mg/kg/injection, schedule: Q04DX002 (ip), vehicle: saline.

Turning to `O=C(O)CNc1cc(S(=O)(=O)O)cc2cc(S(=O)(=O)O)cc(O)c12`, the T/C (dose: 100.0 mg/kg/injection, schedule: Q01DX001 (ip), vehicle: saline) was 103 % of control; the T/C under setting [1] was 103 % of control; the T/C (dose: 200.0 mg/kg/injection, schedule: Q01DX001 (ip), vehicle: saline) was 107 % of control; the T/C under setting [2] is 90 % of control; the T/C (dose: 400.0 mg/kg/injection, schedule: Q01DX001 (ip), vehicle: saline) was 96 % of control; the T/C under setting [3] was 92 % of control.
With `Cc1ccc(C(=O)CCl)c(C)c1`, the T/C is, setting by setting: under setting [4], 95 % of control; under setting [5], 100 % of control; (dose: 50.0 mg/kg/injection, schedule: Q01DX009 (ip), vehicle: saline with Tween-80) 103 % of control.
For the molecule `COc1ccc(CC(=O)NNC(=O)C2(C(C)C)OC3(O)CCCCN3C2=O)cc1OC` (centres undefined), the T/C by setting is: (dose: 25.0 mg/kg/injection, schedule: Q04DX003 (ip), vehicle: saline) 101 % of control; (dose: 50.0 mg/kg/injection, schedule: Q04DX003 (ip), vehicle: saline) 92 % of control; under setting [1], 106 % of control; under setting [2], 92 % of control.
In the case of `CC(CCC(CCC(C)CC(C)(C)C)CCC(C)CC(C)(C)C)CC(C)(C)C` (centres undefined), the T/C was 104 % of control (dose: 75.0 mg/kg/injection, schedule: Q01DX001 (ip), vehicle: saline with Tween-80) and 97 % of control (dose: 300.0 mg/kg/injection, schedule: Q01DX001 (ip), vehicle: saline with Tween-80).
On to `CCOC(=O)NCC(C)(CCN1CCCC1)c1cccc2ccccc12` (centres undefined), for which the T/C was 93 % of control under setting [4]; 100 % of control (dose: 12.5 mg/kg/injection, schedule: Q04DX003 (ip), vehicle: Klucel (hydroxypropylcellulose) (HPC)); 88 % of control under setting [5]; 100 % of control under setting [6]; 100 % of control under setting [7].
As for `Cc1cccc2c(Nc3ccc(NS(C)(=O)=O)cc3)c3ccccc3nc12`, the T/C is 115 % of control (dose: 2.5 mg/kg/injection, schedule: Q01DX009 (ip), vehicle: Klucel (hydroxypropylcellulose) (HPC)); 115 % of control (dose: 5.0 mg/kg/injection, schedule: Q01DX009 (ip), vehicle: Klucel (hydroxypropylcellulose) (HPC)); 117 % of control (dose: 10.0 mg/kg/injection, schedule: Q01DX009 (ip), vehicle: Klucel (hydroxypropylcellulose) (HPC)); 120 % of control (dose: 10.0 mg/kg/injection, schedule: Q01DX009 (ip), vehicle: saline with Tween-80); 112 % of control (dose: 10.0 mg/kg/injection, schedule: Q01DX009 (sc), vehicle: saline); 121 % of control (dose: 20.0 mg/kg/injection, schedule: Q01DX001 (ip), vehicle: saline with Tween-80). Further, the T/C is 224 % of control (dose: 20.0 mg/kg/injection, schedule: Q01DX009 (ip), vehicle: Klucel (hydroxypropylcellulose) (HPC)); 166 % of control (dose: 20.0 mg/kg/injection, schedule: Q01DX009 (ip), vehicle: saline with Tween-80); 110 % of control (dose: 20.0 mg/kg/injection, schedule: Q01DX009 (sc), vehicle: saline); 117 % of control (dose: 40.0 mg/kg/injection, schedule: Q01DX001 (ip), vehicle: saline with Tween-80); 103 % of control (dose: 40.0 mg/kg/injection, schedule: Q01DX009 (ip), vehicle: Klucel (hydroxypropylcellulose) (HPC)); 178 % of control (dose: 40.0 mg/kg/injection, schedule: Q01DX009 (ip), vehicle: saline with Tween-80). Besides, the T/C is 113 % of control (dose: 40.0 mg/kg/injection, schedule: Q01DX009 (sc), vehicle: saline); 159 % of control (dose: 40.0 mg/kg/injection, schedule: Q04DX003 (ip), vehicle: saline with Tween-80); 116 % of control (dose: 80.0 mg/kg/injection, schedule: Q01DX009 (ip), vehicle: saline with Tween-80); 164 % of control (dose: 80.0 mg/kg/injection, schedule: Q04DX003 (ip), vehicle: Klucel (hydroxypropylcellulose) (HPC)); 151 % of control (dose: 80.0 mg/kg/injection, schedule: Q04DX003 (ip), vehicle: saline with Tween-80); 123 % of control under setting [1]. Moreover, the T/C (dose: 160.0 mg/kg/injection, schedule: Q04DX003 (ip), vehicle: Klucel (hydroxypropylcellulose) (HPC)) was 206 % of control; the T/C (dose: 160.0 mg/kg/injection, schedule: Q04DX003 (ip), vehicle: saline with Tween-80) was 168 % of control; the T/C under setting [2] is 167 % of control; the T/C under setting [3] is 94 % of control.
With `Oc1ccccc1C=Nc1ccccc1O`, the T/C reads like this: (dose: 33.0 mg/kg/injection, schedule: Q04DX002 (ip), vehicle: gum acacia) 103 % of control; (dose: 50.0 mg/kg/injection, schedule: Q04DX002 (ip), vehicle: gum acacia) 100 % of control; (dose: 75.0 mg/kg/injection, schedule: Q04DX002 (ip), vehicle: gum acacia) 100 % of control; (dose: 100.0 mg/kg/injection, schedule: Q01DX009 (ip), vehicle: gum acacia) 89 % of control; (dose: 100.0 mg/kg/injection, schedule: Q04DX002 (ip), vehicle: gum acacia) 104 % of control; (dose: 200.0 mg/kg/injection, schedule: Q01DX009 (ip), vehicle: gum acacia) 105 % of control. The T/C was 107 % of control (dose: 200.0 mg/kg/injection, schedule: Q04DX002 (ip), vehicle: gum acacia) and 89 % of control (dose: 400.0 mg/kg/injection, schedule: Q01DX009 (ip), vehicle: gum acacia).
As for `CCOC(=O)CN1CCC(C2(c3cc4ccccc4[nH]3)OCCO2)CC1`, the T/C runs as follows: (dose: 12.0 mg/kg/injection, schedule: Q04DX003 (ip), vehicle: Klucel (hydroxypropylcellulose) (HPC)) 91 % of control; under setting [6], 89 % of control; under setting [7], 100 % of control; under setting [8], 97 % of control; under setting [9], 103 % of control; under setting [10], 101 % of control.
Consider `CP1(=S)CCC(=O)CC1`, for which the T/C under setting [11] is 91 % of control; the T/C under setting [12] is 95 % of control; the T/C (dose: 400.0 mg/kg/injection, schedule: Q04DX002 (ip), vehicle: saline with Tween-80) was 98 % of control.
For the molecule `Cc1cccnc1N`, the T/C under setting [11] was 104 % of control and the T/C under setting [12] is 107 % of control.
Regarding `O=C(Nc1ccc(O)cc1)Sc1ccccc1`, the T/C (dose: 75.0 mg/kg/injection, schedule: Q01DX001 (ip), vehicle: gum acacia) is 107 % of control.
Take `O=C1C=C(c2c(O)ccc3ccccc23)c2ccccc2C1=O`: the T/C was 96 % of control (dose: 50.0 mg/kg/injection, schedule: Q01DX001 (ip), vehicle: carboxymethylcellulose (CMC)); 100 % of control (dose: 100.0 mg/kg/injection, schedule: Q01DX001 (ip), vehicle: carboxymethylcellulose (CMC)); 96 % of control (dose: 200.0 mg/kg/injection, schedule: Q01DX001 (ip), vehicle: carboxymethylcellulose (CMC)); 110 % of control (dose: 400.0 mg/kg/injection, schedule: Q01DX001 (ip), vehicle: carboxymethylcellulose (CMC)).
For `COc1cc(/C=N/NC(=O)c2ccccc2NC(=O)c2ccccc2)ccc1O`, the T/C reads like this: under setting [8], 97 % of control; under setting [9], 95 % of control; under setting [10], 100 % of control.
Take `CCCCCCCCP(=O)(N1CC1C)N1CC1C` (centres undefined): the T/C (dose: 25.0 mg/kg/injection, schedule: Q01DX009 (ip), vehicle: saline) is 98 % of control; the T/C (dose: 50.0 mg/kg/injection, schedule: Q01DX009 (ip), vehicle: saline) was 104 % of control; the T/C (dose: 100.0 mg/kg/injection, schedule: Q01DX009 (ip), vehicle: saline) is 98 % of control; the T/C under setting [1] was 91 % of control.
Consider `Nc1ccc(CC(=O)NC(CCC(=O)O)C(=O)O)cc1` (centres undefined), for which the T/C by setting is: under setting [13], 103 % of control; under setting [14], 91 % of control; under setting [15], 100 % of control.
For `Cn1c2ccccc2c2nnc(NCCCCO)nc21`, in that order: 106 % of control, 97 % of control and 101 % of control.
